These results are taken from patent US20180228780A1, “3-(1H-PYRROLO[2,3-C]PYRIDIN-2-YL)-1H-INDAZOLES AND THERAPEUTIC USES THEREOF” (Samumed, LLC, priority 2015, published 2018).

pEC50: −log10 of the molar value. Where only a bound is given, the exact number is not on record here.

Holding throughout (type): cell-based
In assay [1] the test system is Wnt activity (Sp5-Luc reporter, SW480 colon carcinoma cells). The experiment in a line: Screening assay for Wnt activity: Sp5-Luc reporter gene assay in SW480 cells. As to conditions: Homo sapiens; for pEC50: SW480 Sp5-Luc reporter, overnight incubation. In outline:
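SW480 colon carcinoma cells stably carrying Sp5 promoter (eight TCF/LEF sites)-driven firefly luciferase, plated at 4,000 cells/well in 1% FBS medium and incubated overnight at 37° C. Luminescence normalised to DMSO-only cells; EC50 from four-parameter variable-slope nonlinear regression.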

In assay [2] the test system is primary human mesenchymal stem cells (hMSCs). As to the kind of experiment: Induction of chondrogenesis in hMSCs (nodule imaging, Rhodamine B / Nile Red). To be noted: 6 days; for EC50: concentration required to induce 50% levels of chondrogenesis vs TGF-β3, read-out: Conc (nM) of 50% TGF-β3 activity; for Emax: relative to TGF-β3 (10 ng/mL) positive control, read-out: Max. Activity as % TGF-β3 activity. From the text: Representative compounds were screened using primary human mesenchymal stem cells (hMSCs) to determine their ability to induce chondrogenesis (process by which cartilage is developed).
Primary human mesenchymal stem cells (hMSCs) were purchased from Lonza (Walkersville, Md.) and expanded in Mesenchymal Stem Cell Growth Media (Lonza). Cells between passage 3 and 6 were used for the experiments.
Area of nodules in each well was normalized to the average of 3 DMSO treated wells on the same plate using Excel (Microsoft Inc.). The normalized averages (fold change over DMSO) of 2 or 3 replicate wells for each compound concentration were calculated. Due to solubility limitations of some of the compounds, curve fitting was incomplete leading to inaccurate EC50 determinations.
Using TGF-β3 as a positive control, the concentration of representative compounds required to induce 50% levels of chondrogenesis is reported. In addition, the maximum activity of each compound and the respective dose that each compound reached maximum chondrogenesis activity is reported.

In a further assay the test system is IL-6 (THP-1 cells). As to the kind of experiment: IL-6 inhibition in THP-1 monocytes (HTRF). As to conditions: Homo sapiens; for pEC50: IL-6 inhibition, THP-1 cells, HTRF, 10-point dose-response starting from 10 μM. The method, boiled down:
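THP-1 cells serum-reduced (1% FBS, 24 h), plated 5000/well, stimulated with 500 ng/mL […] after 2 h and incubated a further 22 h at 37 °C. Secreted IL-6 quantified by HTRF (665/620 nm ratio), normalized to DMSO; EC50 from four-parameter fit, duplicates.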

For assay [3], the system named is Primary human fibroblasts derived from IPF patients (LL29 cells). As to the kind of experiment: Inhibition of the fibrotic process: αSMA staining in TGF-β1-treated LL29 fibroblasts. As to conditions: Fibroblast; for pEC50: 96 h, LL29 cells, TGF-β1 20 ng/mL, 4 days, % αSMA-positive cells. In outline: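 LL29 IPF-patient lung fibroblasts plated in F12 with 1% FBS, treated with TGF-β1 plus compound; TGF-β1/DMSO wells served as controls. After 4 days incubation, SYTOX green (1 μM final) added for 30 min at room temperature; αSMA staining used as fibrosis read-out.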

The next assay deals with SW480 colon cancer cells. The experiment in a line: Cell viability assay (CellTiter-Blue) in SW480 colon cancer cells. As to conditions: Homo sapiens; for pEC50: 96 h, SW480 cell viability, four days incubation; for inhibition at 10 µM: SW480, read-out: percent inhibition at 10 μM. In outline:
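Fluorescence from resazurin reduced to resorufin by metabolically active cells was the read-out, taken after ~3 h with CellTiter-Blue.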

For `CC(C)CC(=O)Nc1cncc(-c2ccc3[nH]nc(-c4cc5c(N6CCCCC6)cncc5[nH]4)c3c2)c1` [Compound 170], the pEC50 in assay [1] is 6.42; in the assay with IL-6 (THP-1 cells), 7.34; in assay [3] it was 6.26; in the assay on SW480 colon cancer cells, 6.55. The EC50 in assay [2] was found to be 2700 nM. The Emax in assay [2] worked out at 113%.

Turning to `c1ncc(-c2ccc3[nH]nc(-c4cc5c(N6CCCCC6)cncc5[nH]4)c3c2)cc1CN1CCCC1` [Compound 182, 3-(4-(Piperidin-1-yl)-1H-pyrrolo[2,3-c]pyridin-2-yl)-5-(5-(pyrrolidin-1-ylmethyl)pyridin-3-yl)-1H-indazole], the pEC50 is 5.74 in assay [1], 6.30 in the assay on IL-6 (THP-1 cells), 5.62 in assay [3] and 5.36 in the assay on SW480 colon cancer cells. The Emax in assay [2] was 25%.

Take `c1ncc(-c2ccc3[nH]nc(-c4cc5c(N6CCCCC6)cncc5[nH]4)c3c2)cn1` [Compound 195, 3-(4-(Piperidin-1-yl)-1H-pyrrolo[2,3-c]pyridin-2-yl)-5-(pyrimidin-5-yl)-1H-indazole]: the pEC50 in assay [1] was 5.76; in the assay on IL-6 (THP-1 cells), 5.25; in assay [3], 5.97; with SW480 colon cancer cells, 5.54. Moreover, in assay [2], the Emax came to 38%.

With `CN1CCN(c2cncc3[nH]c(-c4n[nH]c5ccc(-c6cncc(N)c6)cc45)cc23)CC1` [Compound 227, 5-(3-(4-(4-Methylpiperazin-1-yl)-1H-pyrrolo[2,3-c]pyridin-2-yl)-1H-indazol-5-yl)pyridin-3-amine], the pEC50 in assay [1] is 5.08; in the assay with IL-6 (THP-1 cells), less than 5.00; in assay [3], 5.27; with SW480 colon cancer cells it was less than 5.00. The EC50 in assay [2] was determined as 30 nM. Besides, in assay [2], the Emax was 51%. The inhibition at 10 µM in the assay on IL-6 (THP-1 cells) (THP-1, read-out: percentage in parentheses printed under EC50 >10) is 48.5%; with SW480 colon cancer cells it was 37.2%.

On to `CN1CCN(c2cncc3[nH]c(-c4n[nH]c5ccc(-c6cccnc6)cc45)cc23)CC1` [Compound 228, 3-(4-(4-Methylpiperazin-1-yl)-1H-pyrrolo[2,3-c]pyridin-2-yl)-5-(pyridin-3-yl)-1H-indazole], for which the pEC50 in assay [1] is 5.39; in the assay on IL-6 (THP-1 cells), 5.86; in assay [3] it was 6.11; in the assay on SW480 colon cancer cells it was 5.40. Further, the Emax in assay [2] was determined as 20%.

Consider `CN1CCN(c2cncc3[nH]c(-c4n[nH]c5ccc(-c6cncc(NC(=O)CC(C)(C)C)c6)cc45)cc23)CC1` [Compound 240, 3,3-Dimethyl-N-(5-(3-(4-(4-methylpiperazin-1-yl)-1H-pyrrolo[2,3-c]pyridin-2-yl)-1H-indazol-5-yl)pyridin-3-yl)butanamide], for which the pEC50 in assay [1] is 5.46; in the assay on IL-6 (THP-1 cells) it was 6.30; in assay [3], 5.58; with SW480 colon cancer cells it was 5.35. Moreover, in assay [2], the Emax is 31%.

Regarding `CN1CCN(c2cncc3[nH]c(-c4n[nH]c5ccc(-c6cncc(CNCc7ccccc7)c6)cc45)cc23)CC1` [Compound 248], the pEC50 in assay [1] is 5.48; with IL-6 (THP-1 cells), 5.45; in assay [3] it was 5.93; with SW480 colon cancer cells it was 5.44. Besides, in assay [2], the EC50 was 30 nM. The Emax in assay [2] is 101%.

With `Cc1ccncc1-c1ccc2[nH]nc(-c3cc4ccncc4[nH]3)c2c1` [Compound 257, 5-(4-Methylpyridin-3-yl)-3-(1H-pyrrolo[2,3-c]pyridin-2-yl)-1H-indazole], the pEC50 in assay [1] was 6.72; in the assay on IL-6 (THP-1 cells), 7.59; in assay [3], 6.32; with SW480 colon cancer cells it was 6.96. Besides, in assay [2], the EC50 was 300 nM. For the same compound, the Emax in assay [2] worked out at 161%.

With `CCCC(=O)Nc1cncc(-c2ccc3[nH]nc(-c4cc5ccncc5[nH]4)c3c2)c1` [Compound 269, N-(5-(3-(1H-Pyrrolo[2,3-c]pyridin-2-yl)-1H-indazol-5-yl)pyridin-3-yl) butyramide], the pEC50 was 6.34 in assay [1], 7.66 in the assay on IL-6 (THP-1 cells), 6.39 in assay [3] and 6.01 in the assay with SW480 colon cancer cells. Besides, the EC50 in assay [2] is 900 nM. Further, the Emax in assay [2] was found to be 152%.

With `c1cc2cc(-c3n[nH]c4ccc(-c5cncc(CNCC6CCCC6)c5)cc34)[nH]c2cn1` [Compound 277, 1-(5-(3-(1H-Pyrrolo[2,3-c]pyridin-2-yl)-1H-indazol-5-yl)pyridin-3-yl)-N-(cyclopentylmethyl)methanamine], the pEC50 in assay [1] is 5.84; in the assay on IL-6 (THP-1 cells), 7.51; in assay [3], 5.86; with SW480 colon cancer cells it was 5.86. In addition, in assay [2], the Emax worked out at 49%.

Turning to `CN(C)c1cncc(-c2ccc3[nH]nc(-c4cc5c(-c6ccoc6)cncc5[nH]4)c3c2)c1` [Compound 315, 5-(3-(4-(Furan-3-yl)-1H-pyrrolo[2,3-c]pyridin-2-yl)-1H-indazol-5-yl)-N,N-dimethylpyridin-3-amine], the pEC50 in assay [1] is 5.84; in the assay with IL-6 (THP-1 cells), 6.30; in assay [3] it was 5.82; in the assay on SW480 colon cancer cells, 6.25. The EC50 in assay [2] was determined as 300 nM. Besides, the Emax in assay [2] is 69%.

`CCCCC(=O)Nc1cncc(-c2ccc3[nH]nc(-c4cc5c(-c6ccoc6)cncc5[nH]4)c3c2)c1` [Compound 327]: the pEC50 in assay [1] was 6.04; in the assay on IL-6 (THP-1 cells), 6.16; in assay [3], 5.87; in the assay with SW480 colon cancer cells it was 6.53. Further, the EC50 in assay [2] came out at 30 nM. Moreover, the Emax in assay [2] is 122%.

For the compound `O=C(Nc1cncc(-c2ccc3[nH]nc(-c4cc5c(-c6cccs6)cncc5[nH]4)c3c2)c1)C1CC1` [Compound 356, N-(5-(3-(4-(Thiophen-2-yl)-1H-pyrrolo[2,3-c]pyridin-2-yl)-1H-indazol-5-yl)pyridin-3-yl)cyclopropanecarboxamide], the pEC50 in assay [1] is 7.07; with IL-6 (THP-1 cells) it was 7.85; in assay [3], 7.08; in the assay on SW480 colon cancer cells, 6.93. In assay [2], the EC50 worked out at 10 nM. Besides, the Emax in assay [2] worked out at 156%.

As to `c1ccc(CNCc2cncc(-c3ccc4[nH]nc(-c5cc6c(-c7cccs7)cncc6[nH]5)c4c3)c2)cc1` [Compound 360], the pEC50 in assay [1] is 6.24; with IL-6 (THP-1 cells), 7.24; in assay [3], 6.73; in the assay with SW480 colon cancer cells, 6.08. For the same compound, the EC50 in assay [2] was determined as 10 nM. In addition, the Emax in assay [2] was determined as 57%.

For the compound `CCC(=O)Nc1cncc(-c2ccc3[nH]nc(-c4cc5c(-c6cc(F)cc(CNS(C)(=O)=O)c6)cncc5[nH]4)c3c2)c1` [Compound 477, N-(5-(3-(4-(3-Fluoro-5-(methylsulfonamidomethyl)phenyl)-1H-pyrrolo[2,3-c]pyridin-2-yl)-1H-indazol-5-yl)pyridin-3-yl)propionamide], the pEC50 is 6.61 in assay [1], 7.25 with IL-6 (THP-1 cells), 5.79 in assay [3] and 6.05 in the assay on SW480 colon cancer cells. In addition, in assay [2], the Emax came out at 29%.

On to `CCNCc1cncc(-c2ccc3[nH]nc(-c4cc5c(-c6cc(F)cc(CNS(C)(=O)=O)c6)cncc5[nH]4)c3c2)c1` [Compound 482, N-(3-(2-(5-(5-((Ethylamino)methyl)pyridin-3-yl)-1H-indazol-3-yl)-1H-pyrrolo[2,3-c]pyridin-4-yl)-5-fluorobenzyl)methanesulfonamide], for which the inhibition at 10 µM in assay [1] (SW480, read-out: percent inhibition at 10 μM) worked out at 29.8%; in assay [3] (read-out: percent inhibition at 10 μM), 17.1%; in the assay on SW480 colon cancer cells, 24.3%. The pEC50 is less than 5.00 in assay [1], 6.73 in the assay with IL-6 (THP-1 cells), less than 5.00 in assay [3] and less than 5.00 in the assay with SW480 colon cancer cells. The EC50 in assay [2] came to 100 nM. Moreover, the Emax in assay [2] stood at 58%.

On to `CS(=O)(=O)NCc1cc(F)cc(-c2cncc3[nH]c(-c4n[nH]c5ccc(-c6cncc(NC(=O)C7CCC7)c6)cc45)cc23)c1` [Compound 497, N-(5-(3-(4-(3-Fluoro-5-(methylsulfonamidomethyl)phenyl)-1H-pyrrolo[2,3-c]pyridin-2-yl)-1H-indazol-5-yl)pyridin-3-yl)cyclobutanecarboxamide], for which the pEC50 is 6.26 in assay [1], 6.70 in the assay on IL-6 (THP-1 cells), 5.27 in assay [3] and 5.96 with SW480 colon cancer cells. Moreover, the Emax in assay [2] was found to be 15%.
